Like-named read-outs stand apart in the source and are kept apart here. Square brackets hold non-standard residues; d marks the D form. Peptide text beside a SMILES is read from it. 2Nal = N[C@@H](Cc1ccc2ccccc2c1)C(=O)O; hPhe = N[C@@H](CCc1ccccc1)C(=O)O; Cha = N[C@@H](CC1CCCCC1)C(=O)O; Chg = N[C@H](C(=O)O)C1CCCCC1; Aib = CC(C)(N)C(=O)O; βAla = NCCC(=O)O
What was measured:
[1] = test system: T1, human α-thrombin; assay: In vitro resistance of the peptides to enzyme hydrolysis by thrombin; format: in vitro ADME; conditions: isolated enzyme thrombin; human a-thrombin, Tris/HCl buffer pH 7.8, 37° C.; read-out: τt: halving time of the inhibitor concentration in the presence of thrombin alone
T1 construct: human a-thrombin
Method: (§1) The resistance of the compounds of the present invention versus plasmatic proteases was evaluated in vitro in two groups of tests. In the first one, the resistance to proteolysis of thrombin itself was tested incubating the claimed compounds in the presence of thrombin and analysing the mixture at different times. In the second one, the claimed compounds were incubated in plasma of healthy volunteers and, after filtration of the plasma proteins, the supernatants were analyzed by HPLC and capillary electrophoresis.
(§2) In vitro determination of the peptide resistance to enzyme hydrolysis by thrombin.
(§3) 97.2 nmol of hirunorm-I (286 μg), hirunorm-II (285 μg), hirunorm-III (293 μg), were incubated separately with 0.972 nmol of human a-thrombin (35 μg, 3110 Units NIH/mg) in 800 μL of 0.05M Tris/HCl buffer, 0.1M NaCl at pH-7.8 and a temperature of 37° C. 50 μL Aliquots were diluted with 200 μL of 100 mN H3 PO4 and analyzed at pre-set times by capillary electrophoresis on a […] silica Waters capillary, using a Waters Quanta 4000 apparatus fitted with an UV detection at 214 nm. The analyses were carried out at a constant voltage of 18 KV, using a 100 mN phosphoric acid buffer for 25 min. The eluted peaks were collected and analyzed by Fab mass spectrometry.
(§4) ^.sctn. The factors tt and tp are the halving times (min) o
(§5) the inhibitor concentrations in the presence of equimolar amounts of
(§6) thrombin, respectively both alone and in human plasma.

[2] = In vitro resistance of the peptides to hydrolysis by plasma proteases; format: in vitro ADME; conditions: human plasma from healthy donors, 37° C.; read-out: τp: halving time of the inhibitor concentration in human plasma
Method: as §1
In vitro determination of the peptides resistance to hydrolysis by plasma proteases.
[…] of hirunorm-I […], hirunorm-II (569 μg), hirunorm-III (585 μg), were separately incubated with 1600 μL of human plasma from heal thy donors at 37° C. for different times. 50 μL aliquots were added with 200 μL of 100 mN H3 PO4. The supernatants were analyzed at pre-set times by HPLC on a Vydac C18 0.46×25 cm column with a straight acetonitrile gradient containing 0.1% (v/v) of trifluoroacetic acid (phase B) against 0.1% (v/v) aqueous trifluoroacetic acid (phase A), from 5 to 70% in B in 35 min at a flow rate of 1 mL/min, with detection at 210 nm. The eluted peaks were collected and analyzed by capillary electrophoresis on a […]×60 cm fused silica Waters capillary, fitted with a UV detector at 214 nm. The analyses were carried out at a constant voltage of 18 KV, using a buffer 100 mN acid phosphoric for 25 min. The eluted peaks were then analyzed by means of Fab mass spectrometry.
as §4, §5, §6

[3] = target: T2, thrombin (Homo sapiens, UniProt P00734); assay: Inhibition of thrombin-mediated hydrolysis of Chromozym TH (Ki); format: biochemical; conditions: read-out: Ki: hydrolysis inhibition constant of a chromogenic substrate
Method: Moreover, the efficacy of the products of the present invention was also evaluated determining the inhibition constants Ki versus thrombin, using chromogenic substrates.
The inhibition of the hydrolysis, mediated by thrombin, of Chromozym TH by the peptides of the present invention was evaluated according to the literature (Stone, S. R., Hofsteenge, J., Biochemistry, 25, 4622, (1986).
°The hydrolysis inhibition constants of a chromogenic substrate ar

[4] = target: T3, human a-thrombin (Homo sapiens, UniProt P00734); assay: In vitro resistance of the peptides to enzyme hydrolysis by thrombin; format: in vitro ADME; conditions: Tris/HCl buffer pH 7.8, 37° C.
T3 construct: human a-thrombin
Method: as §1, §2, §3, §4, §5, §6

[5] = target: T2, thrombin; conditions: non covalent 1:1 complex; read-out: Ki of hirudin binding to thrombin; cited from earlier work

Molecule | half-life at 121.5 µM [1] | half-life at 1.21 µM [2] | Ki [3] | τt: halving time of the inhibitor concentration in the presence of thrombin alone [4] | Ki [5]
CC[C@H](C)[C@H](N)C(=O)N[C@@H](CCCNC(=N)N)C(=O)N[C@@H](Cc1ccc(O)cc1)C(=O)N[C@H](C(=O)N[C@@H](CC(=O)O)C(=O)N[C@H](C)C(=O)NCCC(=O)NCCC(=O)N1CCC[C@H]1C(=O)N[C@@H](CCC(=O)O)C(=O)N[C@@H](CC(N)=O)C(=O)N[C@@H](Cc1c[nH]cn1)C(=O)N[C@@H](CC(N)=O)C(=O)N[C@@H](CC(N)=O)C(=O)NCC(=O)N[C@@H](CC(=O)O)C(=O)N[C@@H](Cc1ccccc1)C(=O)N[C@@H](CCC(=O)O)C(=O)N[C@@H](CCC(=O)O)C(=O)N[C@H](C(=O)N1CCC[C@H]1C(=O)NC(C)(C)C(=O)NC(C)(C)C(=O)N[C@@H](Cc1ccc(O)cc1)C(=O)N[C@@H](CC(C)C)C(=O)N[C@@H](CCC(=O)O)C(=O)O)[C@@H](C)CC)[C@@H](C)O [Hirunorm-I] (HELM PEPTIDE1{I.R.Y.T.D.[dA].[bAla].[bAla].P.E.N.H.N.N.G.D.F.E.E.I.P.[Aib].[Aib].Y.L.E}$$$$V2.0) | > 8 h | 5 h | 97 nM |  | 
CC[C@H](C)[C@H](N)C(=O)N[C@@H](CCCNC(=N)N)C(=O)N[C@@H](Cc1ccccc1)C(=O)N[C@H](C(=O)N[C@@H](CC(=O)O)C(=O)N[C@H](C)C(=O)NCC(=O)NCCC(=O)N1CCC[C@H]1C(=O)N[C@@H](CCC(=O)O)C(=O)N[C@@H](CO)C(=O)N[C@@H](Cc1c[nH]cn1)C(=O)N[C@@H](CCc1ccccc1)C(=O)NCC(=O)NCC(=O)N[C@@H](CC(=O)O)C(=O)N[C@@H](Cc1ccc(O)cc1)C(=O)N[C@@H](CCC(=O)O)C(=O)N[C@@H](CCC(=O)O)C(=O)N[C@H](C(=O)N1CCC[C@H]1C(=O)NC(C)(C)C(=O)NC(C)(C)C(=O)N[C@@H](Cc1ccc(OP(=O)(O)O)cc1)C(=O)N[C@@H](CC1CCCCC1)C(=O)N[C@H](CCC(=O)O)C(=O)O)[C@@H](C)CC)[C@@H](C)O [Hirunorm-III] (HELM PEPTIDE1{I.R.F.T.D.[dA].G.[bAla].P.E.S.H.[O=C([C@H](CCc1ccccc1)N[*:1])[*:2]].G.G.D.Y.E.E.I.P.[Aib].[Aib].[O=C([C@H](Cc1ccc(OP(=O)(O)O)cc1)N[*:1])[*:2]].[Cha].[dE]}$$$$V2.0) |  | 8 h | 1 nM | > 480 min | 
Hirudin |  |  |  |  | 0.063 nM
CC[C@H](C)[C@H](NC(=O)[C@H](CCC(=O)O)NC(=O)[C@H](CCC(=O)O)NC(=O)[C@H](Cc1ccc(O)cc1)NC(=O)[C@H](CC(=O)O)NC(=O)CNC(=O)CNC(=O)[C@H](CCc1ccccc1)NC(=O)[C@H](Cc1c[nH]cn1)NC(=O)[C@H](CO)NC(=O)[C@H](CCC(=O)O)NC(=O)[C@@H]1CCCN1C(=O)CCNC(=O)CNC(=O)[C@@H](C)NC(=O)[C@H](CC(=O)O)NC(=O)[C@@H](NC(=O)[C@H](Cc1ccc2ccccc2c1)NC(=O)[C@@H](NC(=O)[C@@H](N)C1CCCCC1)C(C)C)[C@@H](C)O)C(=O)N1CCC[C@H]1C(=O)NC(C)(C)C(=O)NC(C)(C)C(=O)N[C@@H](Cc1ccc(O)cc1)C(=O)N[C@@H](CC1CCCCC1)C(=O)N[C@H](CCC(=O)O)C(=O)O [Hirunorm-V] (H-[Chg]V[2Nal]TD[dA]G[βAla]PESH[hPhe]GGDYEEIP[Aib][Aib]Y[Cha][dE]-OH) |  |  | 1 nM |  | 
CC[C@H](C)[C@H](NC(=O)[C@H](CCC(=O)O)NC(=O)[C@H](CCC(=O)O)NC(=O)[C@H](Cc1ccc(O)cc1)NC(=O)[C@H](CC(=O)O)NC(=O)CNC(=O)CNC(=O)[C@H](CCc1ccccc1)NC(=O)[C@H](Cc1c[nH]cn1)NC(=O)[C@H](CO)NC(=O)[C@H](CCC(=O)O)NC(=O)[C@@H]1CCCN1C(=O)CCNC(=O)CNC(=O)[C@@H](C)NC(=O)[C@H](CC(=O)O)NC(=O)[C@@H](NC(=O)[C@H](Cc1ccc2ccccc2c1)NC(=O)[C@H](CCCNC(=N)N)NC(=O)[C@@H](N)C1CCCCC1)[C@@H](C)O)C(=O)N1CCC[C@H]1C(=O)NC(C)(C)C(=O)NC(C)(C)C(=O)N[C@@H](Cc1ccc(O)cc1)C(=O)N[C@@H](CC1CCCCC1)C(=O)N[C@H](CCC(=O)O)C(=O)O [Hirunorm-IV] (H-[Chg]R[2Nal]TD[dA]G[βAla]PESH[hPhe]GGDYEEIP[Aib][Aib]Y[Cha][dE]-OH) |  |  | 2.6 nM |  | 
CC[C@H](C)[C@H](N)C(=O)N[C@@H](CCCNC(=N)N)C(=O)N[C@@H](Cc1ccccc1)C(=O)N[C@H](C(=O)N[C@@H](CC(=O)O)C(=O)N[C@H](C)C(=O)NCC(=O)NCCC(=O)N1CCC[C@H]1C(=O)N[C@@H](CCC(=O)O)C(=O)N[C@@H](CO)C(=O)N[C@@H](Cc1c[nH]cn1)C(=O)N[C@@H](CCc1ccccc1)C(=O)NCC(=O)NCC(=O)N[C@@H](CC(=O)O)C(=O)N[C@@H](Cc1ccc(O)cc1)C(=O)N[C@@H](CCC(=O)O)C(=O)N[C@@H](CCC(=O)O)C(=O)N[C@H](C(=O)N1CCC[C@H]1C(=O)NC(C)(C)C(=O)NC(C)(C)C(=O)N[C@@H](Cc1ccc(O)cc1)C(=O)N[C@@H](CC1CCCCC1)C(=O)N[C@H](CCC(=O)O)C(=O)O)[C@@H](C)CC)[C@@H](C)O [Hirunorm-II] (HELM PEPTIDE1{I.R.F.T.D.[dA].G.[bAla].P.E.S.H.[O=C([C@H](CCc1ccccc1)N[*:1])[*:2]].G.G.D.Y.E.E.I.P.[Aib].[Aib].Y.[Cha].[dE]}$$$$V2.0) |  | 8 h | 2.6 nM | > 480 min | 

Reference: US5723576A, “Thrombin inhibitors, the preparation thereof and the use thereof for therapeutical, prophylactic and diagnostic applications” (Development Biotechnological Processes S.N.C., priority 1993, dated 1998)
